Data taken from article PMC7582316, “Structural and Computational Insights into a Blebbistatin-Bound Myosin•ADP Complex with Characteristics of an ADP-Release Conformation along the Two-Step Myosin Power Stoke” (International Journal of Molecular Sciences, 2020).

Target: T1, Dd myosin-II motor domain (Dictyostelium discoideum, UniProt P08799)
T1 construct: gene mhcA; His6-tagged motor domain, amino acids 1–765 fused to a C-terminal SSB tag
Test: microscale thermophoresis (MST); also X-ray crystal structure with blebbistatin
Format: binding

T1 sequence (P08799 1-765): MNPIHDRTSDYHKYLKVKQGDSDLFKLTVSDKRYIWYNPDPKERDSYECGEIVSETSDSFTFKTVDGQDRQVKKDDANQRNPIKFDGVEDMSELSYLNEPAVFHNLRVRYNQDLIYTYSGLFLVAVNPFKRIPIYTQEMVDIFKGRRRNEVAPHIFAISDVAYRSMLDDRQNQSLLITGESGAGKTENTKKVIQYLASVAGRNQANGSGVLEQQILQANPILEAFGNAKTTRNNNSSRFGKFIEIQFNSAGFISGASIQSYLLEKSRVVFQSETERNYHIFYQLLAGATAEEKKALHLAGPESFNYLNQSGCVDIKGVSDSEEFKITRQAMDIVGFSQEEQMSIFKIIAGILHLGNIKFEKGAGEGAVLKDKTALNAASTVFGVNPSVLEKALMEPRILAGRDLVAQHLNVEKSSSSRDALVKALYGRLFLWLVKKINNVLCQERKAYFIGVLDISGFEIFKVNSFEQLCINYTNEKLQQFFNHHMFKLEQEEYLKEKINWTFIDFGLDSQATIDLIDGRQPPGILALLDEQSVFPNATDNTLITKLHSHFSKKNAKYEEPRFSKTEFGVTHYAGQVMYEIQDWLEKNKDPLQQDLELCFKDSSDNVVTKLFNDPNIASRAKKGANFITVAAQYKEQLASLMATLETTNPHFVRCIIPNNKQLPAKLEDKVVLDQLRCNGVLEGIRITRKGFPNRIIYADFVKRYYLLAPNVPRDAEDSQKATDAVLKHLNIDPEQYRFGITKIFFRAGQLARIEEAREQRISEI

Question: With Nc1ncnc2c1ncn2[C@@H]1O[C@H](COP(=O)(O)OP(=O)(O)O)[C@@H](O)[C@H]1O [ADP] as the molecule, how does the Kd read?
Answer: The Kd was 37.5 ± 7.3 µM.
